Measurements reported in patent US11377441B2, “Covalent inhibitors of KRAS” (Araxes Pharma LLC, priority 2017, dated 2022).

The compounds below were run against T1, KRAS G12C 1-169, his-tagged protein, GDP-loaded (Homo sapiens, UniProt P01116, G12C) (assay: Biochemical assay: covalent modification of KRAS G12C measured by mass spectrometry (RapidFire/TOF or Q-Exactive)). Conditions: covalent binding to (modification of) KRAS G12C after a ten minute incubation period.
T1 construct: KRAS G12C 1-169, his-tagged protein, GDP-loaded
Format: binding
Experimental: Test compounds were prepared as 10 mM stock solutions in DMSO (Fisher cat #BP-231-100). KRAS G12C 1-169, his-tagged protein, GDP-loaded is diluted to 2 μM or 0.5 μM in buffer (20 mM Hepes, 150 mM NaCl, 1 mM MgCl2). Compounds were tested for activity as follows:
Compounds were diluted to 50× final test concentration in DMSO in 96-well storage plates. Compound stock solutions were vortexed before use and observed carefully for any sign of precipitation. Dilutions are as follow: • For 100 μM final compound concentration, compounds were diluted to 5000 μM (5 μL 10 mM compound stock+5 μL DMSO and mixed well by pipetting. • For 30 μM final compound concentration, compounds were diluted to 1500 μM (3 μL 10 mM compound stock+17 μL DMSO) and mixed well by pipetting. • For 10 μM final compound concentration, compounds were diluted to 500 μM (2 μL 10 mM compound stock+38 μL DMSO) and mixed well by pipetting. 49 μL of the stock protein solution was added to each well of a 96-well PCR plate (Fisher cat #1423027). 1 μL of the diluted 50× compounds were added to appropriate wells in the PCR plate using 12-channel pipettor. Reactions were mixed carefully and thoroughly by pipetting up/down with a 200 μL multi-channel pipettor. The plate was sealed well with aluminum plate seal, and stored in drawer at room temperature for 10 minutes, 30 minutes, 2 hours or 24 hours. 5 μL of 2% formic acid (Fisher cat #A117) in de-ionized H2O was then added to each well followed by mixing with a pipette. The plate was then resealed with aluminum seal and stored on dry ice until analyzed as described below.
The above described assays were analyzed by mass spectrometry according to one of the following two procedures:
The MS instrument was set to positive polarity, 2 GHz resolution, and low mass (1700) mode and allowed to equilibrate for 30 minutes. The instrument was then calibrated, switched to acquisition mode and the appropriate method loaded.
After another 30 minute equilibration time, a blank batch (i.e., buffer) was run to ensure equipment is operating properly. The samples were thawed at 37° C. for 10 minutes, briefly centrifuged, and transfer to the bench top. Wells A1 and H12 were spiked with 1 μL 500 μM internal standard peptide, and the plates centrifuged at 2000×g for 5 minutes. The method was then run and masses of each individual well recorded.
The masses (for which integration data is desired) for each well were pasted into the platemap and exported from the analysis. Masses for the internal standards were exported as well. The data at 50 ppm was extracted for the +19 charge state, and identity of well A1 was assigned using the internal standard spike and integrated. Peak data was exported as a TOF list and the above steps were repeated individually, for the +20, 21, 22, 23, 24, and 25 charge states.
The masses and peak intensities of KRAS G12C protein species were measured using a Dionex RSLCnano system (Thermo Scientific) connected to a Q Exactive Plus mass spectrometer (Thermo Scientific).
[…] of sample was each loaded onto a Aeris™ 3.6 μm WIDEPORE C4 200 Å, LC Column 50×2.1 mm column maintained at 40° C. at a flow rate of 600 μL/min with 20% Solvent A (0.1% formic acid in H2O) and […] (0.1% formic acid in acetonitrile). The liquid chromatography conditions were 20% solvent B for 1 minute, 20% to 60% solvent B for 1.5 minutes, 60% to 90% solvent for 0.5 minute, 90% solvent B for 0.2 minute, 90% to 20% solvent B for 0.2 minute, and then equilibrated for 1.6 minutes before the following sample injection. The flow rate was maintained at 600 μL/min throughout the sample analysis.
The mass spectrometer was operated in profile mode at a resolution of 17500, 5 microscans, using 50 msec max injection time and an AGC target of 1×10^6, and a full mass range from 800-1850 m/z was recorded. The HCD trapping gas was optimized for maximum sensitivity for intact proteins. […]
In the case of `C=CC(=O)N1C[C@H](C)N(c2nc(OCCN3CCOCC3)nc3c(F)c(-c4c(C)ccc5[nH]nc(C6CC6)c45)c(Cl)cc23)C[C@H]1C` (atropisomer, axis not shown) [Compound 113, 1-((2R,5S)-4-((R)-6-chloro-7-(3-cyclopropyl-5-methyl-1H-indazol-4-yl)-8-fluoro-2-(2-morpholinoethoxy)quina-zolin-4-yl)-2,5-dimethylpiperazin-1-yl)prop-2-en-1-one], the Binding % is reported as “++ (++ indicates binding activity from 50 to 80%)”. For `C=CC(=O)N1C[C@H](C)N(c2nc(OCCN3CCC(F)(F)C3)nc3c(F)c(-c4c(C)ccc5[nH]nc(C6CC6)c45)c(Cl)cc23)C[C@H]1C` (atropisomer, axis not shown) [Compound 116, 1-((2R,5S)-4-((S)-6-chloro-7-(3-cyclopropyl-5-methyl-1H-indazol-4-yl)-2-(2-(3,3-difluoropyrrolidin-1-y)ethoxy)-8-fluoroquinazolin-4-yl)-2,5-dimethylpiperazin-1-yl)prop-2-en-1-one], the Binding % was “+ (+ indicates binding activity greater than 0% and up to 50%)”. For `C=CC(=O)N1C[C@H](C)N(c2nc(OCCN3CCC(F)(F)C3)nc3c(F)c(-c4c(C)ccc5[nH]nc(C6CC6)c45)c(Cl)cc23)C[C@H]1C` (atropisomer, axis not shown) [Compound 117, 1-((2R,5S)-4-((R)-6-chloro-7-(3-cyclopropyl-5-methyl-1H-indazol-4-yl)-2-(2-(3,3-difluoropyrrolidin-1-yl)ethoxy)-8-fluoroquinazolin-4-yl)-2,5-dimethylpiperazin-1-yl)prop-2-en-1-one], the Binding % was “+++ (+++ indicates binding activity greater than 80%)”. In the case of `C=CC(=O)N1C[C@H](C)N(c2nc(OCCN3CC(F)(F)C3)nc3c(F)c(-c4c(C)ccc5[nH]nc(C6CC6)c45)c(Cl)cc23)C[C@H]1C` (atropisomer, axis not shown) [Compound 121, 1-((2R,5S)-4-((S)-6-chloro-7-(3-cyclopropyl-5-methyl-1H-indazol-4-yl)-2-(2-(3,3-difluoroazetidin-1-yl)ethoxy)-8-fluoroquinazolin-4-yl)-2,5-dimethylpiperazin-1-yl)prop-2-en-1-one], the Binding % is reported as “+ (+ indicates binding activity greater than 0% and up to 50%)”. For `C=CC(=O)N1C[C@H](C)N(c2nc(OCCN3CC(F)(F)C3)nc3c(F)c(-c4c(C)ccc5[nH]nc(C6CC6)c45)c(Cl)cc23)C[C@H]1C` (atropisomer, axis not shown) [Compound 122, 1-((2R,5S)-4-((R)-6-chloro-7-(3-cyclopropyl-5-methyl-1H-indazol-4-yl)-2-(2-(3,3-difluoroazetidin-1-yl)ethoxy)-8-fluoroquinazolin-4-yl)-2,5-dimethylpiperazin-1-yl)prop-2-en-1-one], the Binding % was “+++ (+++ indicates binding activity greater than 80%)”. In the case of `C=CC(=O)N1C[C@H](C)N(c2nc(N3CC(N(C)C)C3)nc3c(F)c(-c4c(C)ccc5cnn(C)c45)c(Cl)cc23)C[C@H]1C` (atropisomer, axis not shown) [Compound 131, 1-((2R,5S)-4-((S)-6-chloro-7-(1,6-dimethyl-1H-indazol-7-yl)-2-(3-(dimethylamino)azetidin-1-yl)-8-fluoroquinazolin-4-yl)-2,5-dimethylpiperazin-1-yl)prop-2-en-1-one], the Binding % is reported as “+ (+ indicates binding activity greater than 0% and up to 50%)”. With `C=CC(=O)N1[C@H](C)CN(c2nc(N3CC(N(C)C)C3)nc3c(F)c(-c4c(C)ccc5[nH]nc(C6CC6)c45)c(Cl)cc23)C[C@@H]1C` (atropisomer, axis not shown) [Compound 133, 1-((2S,6R)-4-((S)-6-chloro-7-(3-cyclopropyl-5-methyl-1H-indazol-4-yl)-2-(3-(dimethylamino)azetidin-1-yl)-8-fluoroquinazolin-4-yl)-2,6-dimethylpiperazin-1-yl)prop-2-en-1-one] the Binding % was “+ (+ indicates binding activity greater than 0% and up to 50%)”. `C=CC(=O)N1[C@H](C)CN(c2nc(N3CC(N(C)C)C3)nc3c(F)c(-c4c(C)ccc5[nH]nc(C6CC6)c45)c(Cl)cc23)C[C@@H]1C` (atropisomer, axis not shown) [Compound 134, 1-((2S,6R)-4-((R)-6-chloro-7-(3-cyclopropyl-5-methyl-1H-indazol-4-yl)-2-(3-(dimethylamino)azetidin-1-yl)-8-fluoroquinazolin-4-yl)-2,6-dimethylpiperazin-1-yl)prop-2-en-1-one] was tested, and the Binding % was “+++ (+++ indicates binding activity greater than 80%)”. With `C=CC(=O)N1C[C@H](C)N(c2nc(OCCN3CCC(F)(F)C3)nc3c(F)c(-c4c(C)ccc5cnn(C)c45)c(Cl)cc23)C[C@H]1C` (atropisomer, axis not shown) [Compound 135, 1-((2R,5S)-4-((S)-6-chloro-2-(2-(3,3-difluoropyrrolidin-1-yl)ethoxy)-7-(1,6-dimethyl-1H-indazol-7-yl)-8-fluoroquinazolin-4-yl)-2,5-dimethylpiperazin-1-yl)prop-2-en-1-one] the Binding % was “+ (+ indicates binding activity greater than 0% and up to 50%)”. For `C=CC(=O)N1C[C@H](C)N(c2nc(OCCN3CCC(F)(F)C3)nc3c(F)c(-c4c(C)ccc5cnn(C)c45)c(Cl)cc23)C[C@H]1C` (atropisomer, axis not shown) [Compound 136, 1-((2R,5S)-4-((R)-6-chloro-2-(2-(3,3-difluoropyrrolidin-1-yl)ethoxy)-7-(1,6-dimethyl-1H-indazol-7-yl)-8-fluoroquinazolin-4-yl)-2,5-dimethylpiperazin-1-yl)prop-2-en-1-one], the Binding % was “+++ (+++ indicates binding activity greater than 80%)”. In the case of `C=CC(=O)N1C[C@H](C)N(c2nc(N3CC(NC)C3)nc3c(F)c(-c4c(C)ccc5cnn(C)c45)c(Cl)cc23)C[C@H]1C` (atropisomer, axis not shown) [Compound 139, 1-((2R,5S)-4-((S)-6-chloro-7-(1,6-dimethyl-1H-indazol-7-yl)-8-fluoro-2-(3-(methylamino)azetidin-1-yl)quinazolin-4-yl)-2,5-dimethylpiperazin-1-yl)prop-2-en-1-one], the Binding % is reported as “+ (+ indicates binding activity greater than 0% and up to 50%)”. With `C=CC(=O)N1[C@H](C)CN(c2nc(N3CC(N(C)C)C3)nc3c(F)c(-c4c(C)ccc5cnn(C)c45)c(Cl)cc23)C[C@@H]1C` (atropisomer, axis not shown) [Compound 141, 1-((2S,6R)-4-((S)-6-chloro-7-(1,6-dimethyl-1H-indazol-7-yl)-2-(3-(dimethylamino)azetidin-1-yl)-8-fluoroquinazolin-4-yl)-2,6-dimethylpiperazin-1-yl)propan-2-en-1-one] the Binding % was “+ (+ indicates binding activity greater than 0% and up to 50%)”. With `C=CC(=O)N1[C@H](C)CN(c2nc(N3CC(N(C)C)C3)nc3c(F)c(-c4c(C)ccc5cnn(C)c45)c(Cl)cc23)C[C@@H]1C` (atropisomer, axis not shown) [Compound 142, 1-((2S,6R)-4-((R)-6-chloro-7-(1,6-dimethyl-1H-indazol-7-yl)-2-(3-(dimethylamino)azetidin-1-yl)-8-fluoroquinazolin-4-yl)-2,6-dimethylpiperazin-1-yl)prop-2-en-1-one] the Binding % was “+++ (+++ indicates binding activity greater than 80%)”. With `C=CC(=O)N1CCN(c2nc(N3CC(N(C)C)C3)nc3c(F)c(-c4c(C)ccc5cnn(C)c45)c(Cl)cc23)C[C@H]1C` (atropisomer, axis not shown) [Compound 143, 1-((R)-4-((S)-6-chloro-7-(1,6-dimethyl-1H-indazol-7-yl)-2-(3-(dimethylamino)azetidin-1-yl)-8-fluoroquinazolin-4-yl)-2-methylpiperazin-1-yl)prop-2-en-1-one] the Binding % was “+ (+ indicates binding activity greater than 0% and up to 50%)”.
